# Laboratory results from patent US20090011974A1, “Scavenger Receptor B1 (Cla-1) Targeting for the Treatment of Infection, Sepsis and Inflammation” (priority 2002, published 2009).
# “Also recorded” adds a separate entry of the source. Where no end group is shown, it is not given here.
# Key:
# THP-1 cells [1] = assay: LTA, Gro-EL and HSP60 stimulated IL-8/IL-6 production in THP-1 cells; format: cell-based, human; settings: 1 μg/ml LTA or Gro-EL, 10-200 fold excess of peptide
# Experimental: (§1) THP-1 and CLA-1 overexpressing HeLa cells. Human monocyte-macrophages, THP-1 (ATCC [American Type Culture Collection] TIB 71), are grown in 48-well plates in RPMI 1640 medium supplemented with 10% fetal calf serum (FCS), penicillin (100 U/ml), and streptomycin (100 μg/ml). All experiments involving LPS-induced interleukin production utilize the same media except that 1% FCS was used. Hela cells were cultured as previously reported (Vishnyakova, T. G. et al. (2003) “BINDING AND INTERNALIZATION OF LIPOPOLY[…] CLA-1, A HUMAN ORTHOLOGUE OF RODENT […] RECEPTOR B1,” J. Biol. Chem 278:22771-22780).
# Assays for cytokines and lactate dehydrogenase (LD).
# THP-1 cells [2] = assay: LPS-stimulated cytokine production in THP-1 cells (ELISA); format: cell-based, human; settings: 10 ng/ml LPS, 24 h
# Experimental: as §1
# Assays for cytokines and lactate dehydrogenase (LD). […]
# CLA-1 [3] = molecular target: T1, CLA-1 (Homo sapiens, UniProt Q8WTV0); assay: Confocal uptake of Alexa/Bodipy labelled ligands in CLA-1 expressing versus mock transfected HeLa cells; format: cell-based; settings: for uptake in CLA-1 transfected HeLa cells compared with mock-transfected control: labelled ligand, confocal microscopy
# T1 construct: using the expression plasmid pTRE2 (Clontech, Pal Alto, Calif.), encoding a CLA-1 protein (pTRE2-CLA-1); expressed in transfected cells; host or cells: HeLa (Tet-off) cells (Clontech), stably co-transfected with pTRE2-CLA-1 and pTK-Hyg and selected with hygromycin
# T1 sequence (Q8WTV0 1-509 isoform Q8WTV0-2): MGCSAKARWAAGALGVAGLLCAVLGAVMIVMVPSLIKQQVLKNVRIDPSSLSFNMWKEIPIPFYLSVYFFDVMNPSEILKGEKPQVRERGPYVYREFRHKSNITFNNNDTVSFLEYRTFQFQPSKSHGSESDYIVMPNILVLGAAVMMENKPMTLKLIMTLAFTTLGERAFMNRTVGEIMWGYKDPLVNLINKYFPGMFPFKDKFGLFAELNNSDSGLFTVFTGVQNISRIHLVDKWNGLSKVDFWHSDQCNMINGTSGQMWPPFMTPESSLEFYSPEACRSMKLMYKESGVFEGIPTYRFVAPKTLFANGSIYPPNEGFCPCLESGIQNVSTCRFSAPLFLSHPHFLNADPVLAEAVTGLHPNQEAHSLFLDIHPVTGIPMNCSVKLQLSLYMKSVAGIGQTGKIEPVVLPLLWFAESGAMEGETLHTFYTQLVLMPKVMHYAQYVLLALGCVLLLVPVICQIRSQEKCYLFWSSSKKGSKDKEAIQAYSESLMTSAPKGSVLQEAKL
# Experimental: Preparation of BODIPY-LPS and Alexa-568 HDL, Lipid-free ApoA-I, L-37PA, L2D-37PA and 18A. HDL, apoA-I, L-37PA, L2D-37PA and 18A are conjugated with Alexa-568, SE (Molecular Probes, protein labeling kit) following the kit instructions. The Alexa ligands are analyzed by 10-20% Tricine-SDS peptide gel electrophoresis. Gels are scanned using Variable Mode Imager, Typhoon 9200, Molecular Dynamics. Alexa-labeled preparations of HDL, apolipoproteins and the peptides are found in appropriate positions with molecular masses of 28, 5 and 2.5 kDa for apoA-I, L-37PA and 18PA, respectively.
# (§2) HeLa cells cultured on glass micro-slides are incubated with 5 μg/ml of Alexa568 HDL, 1-0.5 μg/ml of Alexa 568 apoA-I, 1-0.5 μg/ml of Alexa 568 L-37PA or 0.5 μg/ml Bodipy-LPS for 1-2 h in a CO2 incubator in DMEM containing 1 mg/ml BSA. […] For co-localization, Bodipy-LPS and Alexa 568-HDL or Bodipy-LPS and Alexa 568-L-37PA were used at the same concentrations of 0.5 μg/ml. Fluorescence was viewed with a Zeiss 510 laser scanning confocal microscope, using a krypton-argon-Omnichrome laser with excitation wavelengths of 488 and 568 nm for Bodipy-LPS and Alexa-568 labels, respectively.
# [4] = test system: CLA-1 overexpressing HeLa cells; assay: Bodipy-LPS uptake in HeLa cells in the presence of competitors; format: cell-based, human; settings: for effect on Bodipy-LPS uptake (surface binding and internalization): 100-fold excess of peptide, HeLa cells
# Experimental: HeLa cells cultured on collagen-coated glass micro-slides are incubated with 5 μg/ml of Alexa 568 HDL, 1-0.5 μg/ml of Alexa 568 apoA-I, 1-0.5 μg/ml of Alexa 568 apoA-II or 0.5 μg/ml Bodipy-LPS for 1-2 hour in a CO2 incubator in DMEM containing 20 mg/ml BSA. […] Imaging is performed in PBS containing 0.4 mg/ml of Trypan Blue as the quenching agent. […] For co-localization, Bodipy-LPS and Alexa-568-apoA-I are used at the same concentration of 0.5 μg/ml. A Nikon video-imaging system, consisting of a phase contrast inverted microscope equipped with set of objectives and filters for immunofluorescence and connected to a digital camera and image processor, is used for recording Alexa-568-HDL and Bodipy-LPS uptake. For co-localization experiments, fluorescence is viewed with a Zeiss 510 laser scanning confocal microscope, using a krypton-argon-Omnichrome laser with excitation wavelengths of 488 and 568 nm for Bodipy-LPS and Alexa-568, respectively.
# as §2
# Competition Experiments. The cells are incubated in 1 μg/ml Bodipy-LPS in the presence increasing concentrations of studied peptides. After 2-h incubation cells are washed with ice-cold PBS and lysed in 0.1% sodium dodecyl sulfate (SDS). The lysate fluorescence is measured by HTS7000 Bioassay reader (Perkin Elmer) using 488 nm for excitation and 533 nm for emission monitoring.
# [5] = Limulus amebocyte lysate (LAL) assay for LPS incubated with peptides; settings: 10 ng/ml LPS, 10 μg/ml peptide, 37° C., 24 h; for effect on LAL activity of LPS in the absence of bivalent cations: PBS; for effect on LAL activity of LPS in media containing bivalent cations: RPMI-1640 1% FCS or DPBS
# Text: Limulus Amebocyte Lysate (LAL) Assay for LPS.
# Limulus amebocyte lysate (LAL) assay for LPS.
# CLA-1 [6] = molecular target: T1, CLA-1; assay: Competition for Alexa 488-SAA uptake in CLA-1 overexpressing and mock transfected HeLa cells (FACS); format: binding; settings: mock transfected and CLA-1 overexpressing HeLa cells
# Experimental: Competition experiments. Cells are cultured for 24 hr in serum free DMEM before experiments. […] For KKB-1 anti-CLA-1 blocking experiments, cells are pre-incubated with KKB-1 rabbit anti-serum (non-immune rabbit serum as a negative control) at a dilution of 1:10 followed by ligand addition to a final concentration of 5 μg/ml and a 1-hour incubation. Cell fluorescence was analyzed by FACS analyses.
Substance,effect on LTA and Gro-EL stimulated IL-8 and IL-6 production (THP-1 cells [1]),"effect on LPS-stimulated cytokine (IL-8, IL-6, TNF-α) production (THP-1 cells [2])",SR-BI/CLA-1 ligand property (CLA-1 [3]),uptake in CLA-1 transfected HeLa cells compared with mock-transfected control (CLA-1 [3]),effect on Bodipy-LPS uptake (surface binding and internalization) [4],effect on LAL activity of LPS in the absence of bivalent cations [5],effect on LAL activity of LPS in media containing bivalent cations [5],competition with Alexa 488-SAA for CLA-1 (CLA-1 [6]),effect on LAL activity of LPS in the absence of bivalent cations ([5]; listed as L2D-37P A),effect on LAL activity of LPS in media containing bivalent cations ([5]; listed as L2D-37P A),competition with Alexa 488-SAA for CLA-1 (CLA-1 [6]; listed as ApoA-I),"effect on surface bound Bodipy-LPS ([4]; 100× excess, CLA-1 overexpressing cells)","effect on Bodipy-LPS uptake ([4]; 200× excess of unlabeled lipid poor apoA-I, CLA-1 overexpressing HeLa cells)"
DWLKAFYDKVAEKLKEAF [Peptide 18A],low blocking efficiency,"did not affect LPS-uptake and LPS-stimulated cytokine production; also recorded: Neither L2D-37PA nor 18A, a single helix containing peptide, are effective inhibitors; also recorded: without effect",less potent SR-BI/CLA-1 ligand,not increased,did not affect LPS-uptake,similarly neutralized LPS activity,had no effect on the LAL activity of LPS in culture media,,,,,,
DWLKAFYDKVAEKLKEAF-P-DWLKAFYDKVAEKLKEAF [L1D-37PA] (DWLKAFYDKVAEKLKEAFPDWLKAFYDKVAEKLKEAF; not fully specified (residue 1)) [Peptide L1D-37PA],not effective blockers; also recorded: no effect was observed,not effective blockers,,,,,,No competition is demonstrated,,,,,
"DWLKAFYDKVAEKLKEAF-P-DWLKAFYDKVAEKLKEAF [L2D-37PA] (DWLKAFYDKVAEKLKEAFPDWLKAFYDKVAEKLKEAF; also: two D-amino acids per helix, places not given here) [Peptide L2D-37PA]",not effective blockers; also recorded: block neither LPS uptake nor LPS/LTA/Gro-EL induced interleukin (IL-6 and IL-8) secretion; also recorded: no effect was observed,"did not affect LPS-uptake and LPS-stimulated cytokine production; also recorded: Neither L2D-37PA nor 18A, a single helix containing peptide, are effective inhibitors; also recorded: not effective blockers; also recorded: without effect; also recorded: block neither LPS uptake nor LPS/LTA/Gro-EL induced interleukin (IL-6 and IL-8) secretion",do not bind to SR-BI/CLA-1,not increased,did not affect LPS-uptake; also recorded: does not decrease LPS uptake; also recorded: block neither LPS uptake,also decreases LPS activity in the absence of bivalent cations,No substantial LPS neutralization; also recorded: had no effect in the presence of bivalent cations,No competition is demonstrated,similarly neutralized LPS activity,had no effect on the LAL activity of LPS in culture media,,,
"DWLKAFYDKVAEKLKEAF-P-DWLKAFYDKVAEKLKEAF [L3D-37PA] (DWLKAFYDKVAEKLKEAFPDWLKAFYDKVAEKLKEAF; also: triple D-amino acid substitutions, places not given here) [Peptide L3D-37PA]",not effective blockers; also recorded: no effect was observed,not effective blockers,,,,,,No competition is demonstrated,,,,,
apoA-I: lipid poor apolipoprotein A-I purified from human plasma,,,,Increased surface binding and internalization,,,,compete with Alexa 488-SAA for CLA-1,,,competed for CLA-1 binding with Alexa 488-SAA,eliminated surface bound Bodipy-LPS,dramatically reduces Bodipy-LPS uptake
